Assay results as given in US8598339B2, “Withanolide isolated from Physalis longifolia and analogs and methods of use thereof” (University of Kansas, priority 2011, dated 2013).
Like-named read-outs stand apart in the source and are kept apart here.

Tests used:
Assay type in all cases: cell-based
melanoma cells B16F10 = test: MTS cell viability assay, B16F10; conditions: Mus musculus; for IC50: B16-F10, Table 1, 72-hour treatment
Method: (§1) Human carcinoid cells, NCI-H727 (ATCC, Manassas, Va.), were cultured under standard conditions. Squamous cell carcinoma of head and neck cells, MDA1986 (Myers, et al. (2002) Clin. Cancer Res. 8:293) and JMAR (Swan, et al. (2003) Oral Oncol. 39:648-55); and melanoma cells lines B16F10 (ATCC, Manassas, Va.) and SKMEL28 (CLS, Eppelheim, Germany) were cultured in DMEM medium supplemented with 10% heat-inactivated fetal bovine serum (Sigma-Aldrich, St. Louis, Mo.), 1×MEM-essential amino acid, 1×MEM vitamin, and penicillin/streptomycin (Sigma-Aldrich, St. Louis, Mo.) in a humid environment of 5% CO2 at 37° C. Activity of withanolides against DRO81-1 and TT medullary thyroid cancer cells was also determined.
(§2) Cells were cultured in 96 well plates at a concentration of 1-2×10^4 cells/mL. Cell viability was assessed with the nonradioactive cell proliferation MTS assay using Cell Titer 96AQUEOUS One Solution Reagent (PROMEGA, Madison, Wis.), according to the manufacturer's instruction. After a 72-hour treatment, 20 μL of Cell Titer 96AQUEOUS One Solution Reagent were added to each well and incubated for 3 hours at 37° C. 5% CO2, and formazan absorbance was measured at 490 nm.

[1] = tested on: human melanoma SKMEL28 cells; test: MTS cell viability assay, SKMEL28; conditions: Homo sapiens; for IC50: SK-MEL-28, 72 h
Method: as §1, §2
A cell viability MTS assay was carried out to determine the anti-cancer effect of the withanolides on human melanoma SKMEL28 cells. Cells were treated for 72 hours and cell viability was determined according to the manufacturer's instruction.

[2] = tested on: squamous cell carcinoma of head and neck cells MDA1986; test: MTS cell viability assay, MDA1986; conditions: Table 1, 72-hour treatment
Method: as §1, §2

[3] = tested on: squamous cell carcinoma of head and neck cells JMAR; test: MTS cell viability assay, JMAR; conditions: for IC50: Table 1, 72-hour treatment
Method: as §1, §2

[4] = tested on: human carcinoid cells NCI-H727; test: MTS cell viability assay, NCI-H727
Method: as §1, §2

MRC-5 = test: MTS cell viability assay, MRC-5; conditions: Homo sapiens, MRC5, Table 1, 72-hour treatment
[5] = tested on: DRO81-1 medullary thyroid cancer cells; test: MTS cell viability assay, DRO81-1
Method: as §1, §2

HS766T = test: Pancreatic cancer cell viability, HS766T
Method: (§3) The activity of the withanolides of this invention were tested in pancreatic cancer cells. […] Moreover, IC50 values were determined for these compounds (Table 14).

Mia PaCa-2 = test: Pancreatic cancer cell viability, Mia PaCa-2; conditions: Homo sapiens
Method: as §3

[6] = tested on: heat shock factor (HSF) / HSE-luciferase in Hs766T cells; test: HSE-luciferase reporter, Hs766T; set-up: dose or concentration left out as unconfirmed; conditions: heat shock 42° C. 30 minutes; recovery 8 hours
Method: To monitor the activation of heat shock factor (HSF) and heat shock-mediated signal transduction pathways, Hs766T cells were transfected with a HSE-luciferase construct, then treated with 3 mM of the selected withanolides for 8 hours. The cells were heat shocked at 42° C. for 30 minutes and allowed to recover at 37° C. for 8 hours. Cells were lysed and luciferase activity was measured on a plate reader.

[7] = tested on: hsf1 and client proteins of Hsp90 in Hs766T cells; test: Western blot, Hs766T
[8] = tested on: hsf1 and client proteins of Hsp90 in MIA PaCa-2 cells; test: Western blot, MIA PaCa-2
[9] = tested on: HSF1, Hsp70 and Hsp40 mRNA; test: HSF1, Hsp70 and Hsp40 mRNA levels; conditions: Control 1.0
Method: Levels of HSF1, Hsp70 and Hsp40 mRNA were also determined in response to treatment with SX002 or X003 for 8 or 16 hours.

[10] = tested on: TT medullary thyroid cancer cells; test: MTS cell viability assay, TT; conditions: Table 1, 72-hour treatment
Method: as §1, §2

SUP-B15 Ph+ ALL cells = test: MTS assay, SUP-B15
Method: (§4) Cell proliferation was analyzed using MTS assay and Trypan Blue exclusion. Annexin V-FITC/Propidium Iodide flow cytometry was used to analyze the induction of apoptosis in SUP-B15 cells after treatment with anolides. Cell cycle analysis was performed using propidium iodide flow cytometry. Modulation of BCR-ABL and downstream effector proteins was determined by western blot analysis. Syngery between withanolides and TKIs was evaluated using MTS viability to calculate combination indices. Apoptotic synergy was evaluated using Annexin V/PI.

normal MRC-5 fibroblasts = test: MTS assay, normal MRC-5 fibroblasts (Example 7); conditions: Homo sapiens, MRC5
Method: as §4

SUP-B15 cells [11] = test: Trypan blue exclusion assay, SUP-B15; conditions: 5×, 2×, 1×, 0.5×IC50
Method: Cell proliferation was analyzed using MTS assay and Trypan Blue exclusion. Annexin V-FITC/Propidium Iodide flow cytometry was used to analyze the induction of apoptosis in SUP-B15 cells after treatment with anolides. Cell cycle analysis was performed using propidium iodide flow cytometry. Modulation of BCR-ABL and downstream effector proteins was determined by western blot analysis. […] between withanolides and TKIs was evaluated using MTS viability to calculate combination indices. Apoptotic synergy was evaluated using Annexin V/PI.

SUP-B15 cells [12] = test: Annexin V/propidium iodide apoptosis, SUP-B15; conditions: 48 hour; approximately 10×IC50 (Withaferin A, X001), 4×IC50 (X003)
Method: as §4
At no concentrations was the population of cells in necrosis significant.

SUP-B15 cells [13] = test: Cell cycle analysis by PI flow cytometry, SUP-B15; conditions: 48 hour treatment
Method: as §4

SUP-B15 Ph+ALL cells = test: Combination with imatinib, MTS viability, SUP-B15; conditions: 16 combinations
Method: as §4

[14] = Table 3, treated for 72 hours, NA = no activity

With `CC(=O)OCC1=C(C)C[C@H]([C@@H](C)C2CC[C@H]3[C@@H]4C[C@H]5O[C@]56[C@@H](OC(C)=O)C=CC(=O)[C@]6(CO)[C@H]4CC[C@]23C)OC1=O` (some centres unmarked) [Compound X002, 4,27-diactyl X001] the IC50 (melanoma cells B16F10) was 98 nM, the IC50 ([1]; Table 1, 72-hour treatment) was 810 nM and the IC50 [1, 14] was 1250 nM. The IC50 [2] was 2240 nM, the IC50 [3] was 140 nM and the IC50 ([4]; NCI-H727, 72 h) was 370 nM. For the same molecule, the IC50 (MRC-5) was 410 nM, the IC50 ([5]; 72 h) was 480 nM and the IC50 (HS766T) was 400 nM. The IC50 (Mia PaCa-2) was 220 nM, the “heat shock-induced increase in luciferase activity” value [6] was “substantially reduced” and the “stress and client protein response (western blot)” value [7] was “induced oxidative and proteotoxic stress, while depleting hsf1 and client proteins of Hsp90”. The “stress and client protein response (western blot)” value [8] was “induced oxidative and proteotoxic stress, while depleting hsf1 and client proteins of Hsp90”, the “HSF1 mRNA level” value ([9]; 8 hours) was 1.3 and the “HSP40 mRNA level” value ([9]; 8 hours) was 13.1. The “HSP70 mRNA level” value ([9]; 8 hours) was 56.6, the “HSF1 mRNA level” value ([9]; 16 hours) was 1.1 and the “HSP40 mRNA level” value ([9]; 16 hours) was 15.3. For the same molecule, the “HSP70 mRNA level” value ([9]; 16 hours) was 196.7.

`CC1=C(CO)C(=O)O[C@@H]([C@@H](C)[C@H]2CC[C@H]3[C@@H]4C[C@H]5O[C@]56[C@@H](O)C=CC(=O)[C@]6(C)[C@H]4CC[C@]23C)C1` [Withaferin A, reference compound] was tested, and the IC50 (melanoma cells B16F10) was 260 nM, the IC90 (melanoma cells B16F10; B16-F10, Table 2) was 1230 nM and the IC50 ([1]; Table 1, 72-hour treatment) was 3960 nM. It also gave an IC50 [1, 14] of 3150 nM, an IC90 ([1]; SK-MEL-28, Table 2) of 680 nM and an IC50 [2] of 800 nM. It also gave an IC50 [3] of 2000 nM, an IC90 ([3]; Table 2) of 3600 nM and an IC50 ([4]; Table 1, NCI-H727, 72-hour treatment, read-out: IC50) of 3880 nM. It also gave an IC50 (MRC-5) of 200 nM, an IC50 ([5]; Table 1, DRO81-1, 72-hour treatment, read-out: IC50) of 1090 nM and an IC50 [10] of 1130 nM. The IC50 (SUP-B15 Ph+ ALL cells; Homo sapiens, SUP-B15) was 132 nM, the “Fold Difference” value (SUP-B15 Ph+ ALL cells; MRC-5 vs SUP-B15 IC50) was 17X and the IC50 (normal MRC-5 fibroblasts) was 2200 nM. For the same molecule, the “cell death at 24 hours, trypan blue exclusion” value (SUP-B15 cells [11]) was “did not cause significant cell death at 24 hours at any concentration tested”, the induction of apoptosis (SUP-B15 cells [12]) was “almost all cells were in either late or early apoptosis” and the “Cell Cycle (%) G0/G1” value (SUP-B15 cells [13]; 80 nM) was 49.9%. The “Cell Cycle (%) G2/M” value (SUP-B15 cells [13]; 80 nM) was 27.8%, the “Cell Cycle (%) S” value (SUP-B15 cells [13]; 80 nM) was 22.2% and the “Cell Cycle (%) G0/G1” value (SUP-B15 cells [13]; 160 nM) was 50.2%. For the same molecule, the “Cell Cycle (%) G2/M” value (SUP-B15 cells [13]; 160 nM) was 28.4%, the “Cell Cycle (%) S” value (SUP-B15 cells [13]; 160 nM) was 21.4% and the “Cell Cycle (%) G0/G1” value (SUP-B15 cells [13]; 320 nM) was 38.4%. For the same molecule, the “Cell Cycle (%) G2/M” value (SUP-B15 cells [13]; 320 nM) was 46.8%, the “Cell Cycle (%) S” value (SUP-B15 cells [13]; 320 nM) was 14.8% and the “Cell Cycle (%) G0/G1” value (SUP-B15 cells [13]; 640 nM) was 23.7%. For the same molecule, the “Cell Cycle (%) G2/M” value (SUP-B15 cells [13]; 640 nM) was 71%, the “Cell Cycle (%) S” value (SUP-B15 cells [13]; 640 nM) was 5.3% and the “Cell Cycle (%) G0/G1” value (SUP-B15 cells [13]; 1280 nM) was 47.1%. For the same molecule, the “Cell Cycle (%) G2/M” value (SUP-B15 cells [13]; 1280 nM) was 34.3%, the “Cell Cycle (%) S” value (SUP-B15 cells [13]; 1280 nM) was 18.6% and the “combination index (CI) with imatinib” value (SUP-B15 Ph+ALL cells; 0.25×-1×IC50 of each drug) was 1.3. For the same molecule, the synergy with imatinib (SUP-B15 Ph+ALL cells) was “only showed synergy at three of the concentrations tested”.
